Laboratory results published in ChEMBL document CHEMBL4665842, “Sortase A-Inhibitory Coumarins from the Folk Medicinal Plant Poncirus trifoliata” (J Nat Prod, 2020).
Values after ≈ are worked out from the molar mass of the structure shown. Active and inactive are the calls of the source. The rule behind the calls is not given here.

What was measured:
Staphylococcus aureus [1] = experiment: Antimicrobial activity against Staphylococcus aureus ATCC 6538p; type: functional
Staphylococcus aureus [2] = experiment: Inhibition of Staphylococcus aureus Newman sortase A assessed as […] in fibrinogen-mediated cell clumping at 100 uM after 2 hrs
[3] = Inhibition of recombinant Staphylococcus aureus ATCC 6538p sortase A using dabcyl-LPETG-edans as substrate incubated for 2 hrs by fluorometric method
Staphylococcus aureus [4] = experiment: Inhibition of Staphylococcus aureus Newman sortase A assessed as […] in fibrinogen-mediated cell clumping after 2 hrs; conditions: dose microM 25-100, time 2.0 hrs
Staphylococcus aureus [5] = experiment: Inhibition of Staphylococcus aureus Newman sortase A assessed as reduction in bacterial adherence to fibronectin-coated surfaces up to 4 times of IC50 concentration for every 30 mins for 2.5 hrs; conditions: time hrs <=2.5

Structure (SMILES): CC(C)(O)[C@H](O)COc1ccc2ccc(=O)oc2c1C[C@H](O)C(C)(C)O
- MIC (Staphylococcus aureus [1]): > 350 µM
- fold change (FC) (Staphylococcus aureus [2]): > 2
- IC50 [3]: 47.2 µM
- inhibition (Staphylococcus aureus [4]): Dose-dependent effect

Structure (SMILES): COC(C)(C)[C@@H](O)Cc1c(OC[C@@H](O)C(C)(C)O)ccc2ccc(=O)oc12
- MIC (Staphylococcus aureus [1]): > 337 µM
- fold change (FC) (Staphylococcus aureus [2]): > 2
- IC50 [3]: 26.6 µM
- inhibition (Staphylococcus aureus [4]): Dose-dependent effect
- inhibition (Staphylococcus aureus [5]): Active

Structure (SMILES): C/C(=C\COc1ccc2ccc(=O)oc2c1)C/C=C/C(C)(C)OO
- MIC (Staphylococcus aureus [1]): > 388 µM
- fold change (FC) (Staphylococcus aureus [2]): > 2
- IC50 [3]: 19.1 µM
- inhibition (Staphylococcus aureus [4]): Dose-dependent effect
- inhibition (Staphylococcus aureus [5]): Active

Structure (SMILES): COC(C)(C)[C@H](O)COc1ccc2ccc(=O)oc2c1CC(=O)C(C)C
- MIC (Staphylococcus aureus [1]): > 353 µM
- IC50 [3]: 119 µM

Structure (SMILES): CC(C)(O)[C@H](O)COc1c2ccoc2cc2oc(=O)ccc12 [OXYPEUCEDANIN HYDRATE]
- MIC (Staphylococcus aureus [1]): > 421 µM
- IC50 [3]: 230 µM

Structure (SMILES): CC1(C)S[C@@H]2[C@H](NC(=O)[C@H](N)c3ccccc3)C(=O)N2[C@H]1C(=O)O [AMPICILLIN]
- MIC (Staphylococcus aureus [1]): 0.18 µM (≈ 0.0629 µg/mL)

Structure (SMILES): COC(C)(C)[C@H](O)COc1ccc2ccc(=O)oc2c1C[C@H](O)C(C)(C)O
- MIC (Staphylococcus aureus [1]): > 337 µM
- IC50 [3]: 76 µM

Structure (SMILES): O=c1ccc2ccc(O)cc2o1 [UMBELLIFERONE]
- MIC (Staphylococcus aureus [1]): > 790 µM

Structure (SMILES): C=C(C)[C@H](CC/C(C)=C/COc1ccc2ccc(=O)oc2c1)OO
- MIC (Staphylococcus aureus [1]): > 388 µM
- fold change (FC) (Staphylococcus aureus [2]): > 2
- IC50 [3]: 23.5 µM
- inhibition (Staphylococcus aureus [4]): Dose-dependent effect

Structure (SMILES): O=C(O)/C=C/c1ccc(O)cc1 [COUMARIC ACID]
- MIC (Staphylococcus aureus [1]): > 780 µM
- IC50 [3]: > 780 µM

Structure (SMILES): CC(C)C(=O)Cc1c(OC[C@@H](O)C(C)(C)O)ccc2ccc(=O)oc12
- MIC (Staphylococcus aureus [1]): > 368 µM
- fold change (FC) (Staphylococcus aureus [2]): > 2
- IC50 [3]: 34.5 µM
- inhibition (Staphylococcus aureus [4]): Dose-dependent effect
- inhibition (Staphylococcus aureus [5]): Active

Structure (SMILES): C=C(C)[C@H](O)COc1ccc2ccc(=O)oc2c1CC(=O)C(C)C
- MIC (Staphylococcus aureus [1]): > 388 µM
- IC50 [3]: 112 µM
